A word on the IC50: it is the concentration that inhibits the measured activity by half. As a reminder, the efflux ratio is the permeability from basolateral to apical divided by that in the opposite direction, in the common usage.

For 45 molecules, IC50 and efflux ratio results are on record in patent US11851440B2, “Modulators of eukaryotic initiation factor 2B, compositions and methods” (Denali Therapeutics Inc., priority 2017, dated 2023).

Data set [1] relates to ISR pathway (ATF4 translation). Nature of the data set: ATF4 Nano Luciferase reporter integrated stress response (ISR) assay in H4 ATF4-NLuc cells. As to conditions: Homo sapiens. Background: In a reporter assay the amount or activity of a reporter protein is the signal.
Data set [2] deals with T1, P-gp (P-glycoprotein, MDR1) (Homo sapiens, UniProt P08183).
T1 construct: host or cells: MDCKII-MDR1 cells (pre-plated, Corning HTS Transwell-96)
Nature of the data set: MDCKII-MDR1 permeability, bidirectional assay. It counts as in vitro ADME. As to conditions: dog, MDCK-MDR1, MDCKII-MDR1 cells, HBSS+12.5 mM HEPES pH 7.4. The procedure: The blood brain barrier (BBB) separates circulating blood from the extracellular fluid of the central nervous system (CNS). […] A bidirectional assay (Apical to Basolateral (A→B) and Basolateral to Apical (B→A)), in the absence and in the presence of GF120918 (a P-gp inhibitor) was conducted using pre-plated MDCKII-MDR1 cells (Corning HTS Transwell-96) obtained from SOLVO Biotechnology. The assay was run at 3 μM for 90 min (minutes) in triplicate using a HBSS+12.5 mM HEPES pH 7.4 transport buffer. Following incubation of samples from donor and receiver, wells were removed and measured by LC-MS/MS. Samples were extracted by protein precipitation with acetonitrile containing an appropriate internal standard (IS) having a known mass and molecular weight. The precipitate was centrifuged for 10 min at 3000 rpm (revolutions per minute). The supernatants were then collected, diluted if necessary, and injected on to the LC-MS/MS system. Specific parent/daughter ion pairs for the test article and IS were used to selectively measure the test articles. Papp (apparent permeability expressed in nm/sec [nanometer/second]) values were calculated according to the following equation: […]
Where dQ/dt is the permeability rate, C0 is the initial concentration in the donor solution (expressed as IS ratio), A and B are the surface areas of the filter (the surface area of the cell monolayer).
Monolayer efflux ratios (ER) were derived using the following equation: […]

[3] abbreviates: H4 ATF4-NLuc (clone 17) cells, compound 30 minutes, then 50 um sodium arsenite for 6 hours, luminescence readout.
The mark [4] stands for this setting: read-out: Activity (IC50), H4 ATF4-NLuc (clone 17) cells, compound 30 minutes, then 50 um sodium arsenite for 6 hours, luminescence readout.

Like-named read-outs stand apart in the source and are kept apart here. A value given as a limit tells only on which side of the number the result lay.

T1 sequence (P08183 whole entry): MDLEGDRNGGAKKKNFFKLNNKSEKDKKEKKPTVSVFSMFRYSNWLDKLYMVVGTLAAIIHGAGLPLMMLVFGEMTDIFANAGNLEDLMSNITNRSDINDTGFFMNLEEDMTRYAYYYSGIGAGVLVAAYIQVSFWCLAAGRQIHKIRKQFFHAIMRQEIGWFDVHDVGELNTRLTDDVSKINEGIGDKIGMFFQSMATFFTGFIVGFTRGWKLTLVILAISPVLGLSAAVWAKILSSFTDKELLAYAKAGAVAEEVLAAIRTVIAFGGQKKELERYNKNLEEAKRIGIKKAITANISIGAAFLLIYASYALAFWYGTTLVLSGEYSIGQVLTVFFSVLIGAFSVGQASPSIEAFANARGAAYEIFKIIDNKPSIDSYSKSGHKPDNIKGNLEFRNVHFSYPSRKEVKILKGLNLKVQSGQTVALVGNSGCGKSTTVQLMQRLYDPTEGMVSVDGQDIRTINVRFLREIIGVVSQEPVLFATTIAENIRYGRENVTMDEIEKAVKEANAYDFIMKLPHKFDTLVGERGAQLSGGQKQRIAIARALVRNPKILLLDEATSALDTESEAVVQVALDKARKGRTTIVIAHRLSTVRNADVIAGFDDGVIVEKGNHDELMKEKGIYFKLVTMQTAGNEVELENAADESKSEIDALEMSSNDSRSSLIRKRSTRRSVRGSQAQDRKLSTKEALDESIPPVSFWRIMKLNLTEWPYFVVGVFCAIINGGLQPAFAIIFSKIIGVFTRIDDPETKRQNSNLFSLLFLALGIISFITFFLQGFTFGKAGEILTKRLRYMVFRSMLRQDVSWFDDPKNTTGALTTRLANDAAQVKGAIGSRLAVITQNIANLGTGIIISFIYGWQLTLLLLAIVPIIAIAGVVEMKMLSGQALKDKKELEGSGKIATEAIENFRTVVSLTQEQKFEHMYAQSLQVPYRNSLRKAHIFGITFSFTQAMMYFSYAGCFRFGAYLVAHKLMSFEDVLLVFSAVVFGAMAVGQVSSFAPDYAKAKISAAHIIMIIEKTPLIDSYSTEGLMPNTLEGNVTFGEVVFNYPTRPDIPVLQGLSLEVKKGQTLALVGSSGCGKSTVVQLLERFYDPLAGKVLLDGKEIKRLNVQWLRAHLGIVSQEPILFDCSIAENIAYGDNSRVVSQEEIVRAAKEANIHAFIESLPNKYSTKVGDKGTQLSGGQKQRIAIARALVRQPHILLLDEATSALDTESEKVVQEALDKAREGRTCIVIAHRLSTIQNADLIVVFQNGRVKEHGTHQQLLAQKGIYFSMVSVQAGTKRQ

For the molecule `O=C(COc1ccc(Cl)c(F)c1)NC12CC(c3nnc([C@@H]4C[C@H]4COC(F)(F)F)o3)(C1)C2` (single isomer, unassigned) [Example 81, 2-(4-chloro-3-fluoro-phenoxy)-N-[3-[5-[2-trans-(trifluoromethoxymethyl)cyclopropyl]-1,3,4-oxadiazol-2-yl]-1-bicyclo[1.1.1]pentanyl]acetamide], the IC50 is 0.0118 µM in data set [1] (setting [3]) and below 1 µM in data set [1] (setting [4]). The efflux ratio at 90 min, 3 μM in data set [2] was at most 2.5.
The like results for `O=C(COc1ccc(Cl)c(F)c1)NC12CC(c3nnc(CCCOC(F)(F)F)o3)(C1)C2` [Example 49, 2-(4-chloro-3-fluorophenoxy)-N-(3-(5-(3-(trifluoromethoxy)propyl)-1,3,4-oxadiazol-2-yl)bicyclo[1.1.1]pentan-1-yl)acetamide] were, in that order, 0.0182 µM, below 1 µM and at most 2.5.
For the molecule `O=C(CO[C@H]1C[C@@H](OC(F)(F)F)C1)NC12CC(n3cnc(-c4ccc(Cl)c(F)c4)c3)(C1)C2` [Example 70, N-[3-[4-(4-chloro-3-fluoro-phenyl)imidazol-1-yl]-1-bicyclo[1.1.1]pentanyl]-2-[3-cis-(trifluoromethoxy)cyclobutoxy]acetamide], the values for the IC50 in data set [1] (setting [3]) and in data set [1] (setting [4]) were 0.0028 µM and below 1 µM, respectively. Moreover, the efflux ratio at 90 min, 3 μM in data set [2] is at most 2.5.
Taken in the same sequence, the figures for `O=C(COc1ccc(Cl)c(F)c1)NC12CC(NCCO[C@H]3C[C@@H](OC(F)(F)F)C3)(C1)C2` [Example 133, 2-(4-chloro-3-fluoro-phenoxy)-N-[1-[2-[cis-3-(trifluoromethoxy)cyclobutoxy]ethylamino]-3-bicyclo[1.1.1]pentanyl]acetamide] were 0.0181 µM, below 1 µM and at most 2.5.
With `O=C(NC12CC(n3cnc(-c4ccc(F)c(F)c4)c3)(C1)C2)[C@H]1C[C@@H](OCCOC(F)(F)F)C1` [Example 229], the IC50 in data set [1] (setting [4]) was below 1 µM.
For the molecule `O=C(CO[C@H]1C[C@@H](n2nccn2)C1)NC12CC(n3cnc(-c4ccc(Cl)c(F)c4)c3)(C1)C2` [Example 230], the IC50 in data set [1] (setting [4]) was below 1 µM.
Consider `O=C(CO[C@H]1C[C@@H](OC(F)(F)F)C1)NC12CC(n3cnc(-c4cnc(C(F)(F)F)nc4)c3)(C1)C2` [Example 231], for which, in data set [1] (setting [4]), the IC50 is below 1 µM.
Same read-out and setting: as for `O=C(NC12CC(c3nnc(C4CC(OC(F)(F)F)C4)o3)(C1)C2)C(CO)Oc1ccc(Cl)cc1` (stereo not drawn) [Example 232], the figure is below 1 µM.
As to `O=C(CO[C@H]1C[C@@H](OC(F)(F)F)C1)NC12CC(c3nc4ccc(Cl)cc4o3)(C1)C2` [Example 233], the IC50 in data set [1] (setting [4]) is below 1 µM.
`O=C(CO[C@H]1C[C@@H](OC(F)(F)F)C1)NC12CC(c3nc4cc(Cl)ccc4o3)(C1)C2` [Example 234]: the half-maximal inhibitory concentration (IC50) in data set [1] (setting [4]) was in the range of 1 to 10 µM.
Same read-out and setting: for `O=C(NC12CC(c3nnc(-c4ccc(Cl)c(F)c4)o3)(C1)C2)[C@H]1CC[C@H](COC(F)(F)F)CC1` [Example 235] the value was below 1 µM; for `O=C(COc1ccc(Cl)c(F)c1)NC12CC(NC(=O)OC[C@H]3C[C@H](OC(F)(F)F)C3)(C1)C2` [Example 238], below 1 µM.
`O=C(CO[C@H]1C[C@@H](OC(F)(F)F)C1)NC12CC(c3ncn(-c4ccc(Cl)c(F)c4)n3)(C1)C2` [Example 239]: the IC50 in data set [1] (setting [4]) was below 1 µM.
For `CCO[C@H]1C[C@@H](OCC(=O)NC23CC(n4cnc(-c5ccc(Cl)c(F)c5)c4)(C2)C3)C1` [Example 240], the IC50 in data set [1] (setting [4]) is below 1 µM.
For the molecule `O=C(CO[C@H]1C[C@@H](OC(F)(F)F)C1)NC12CC(c3nnc(-c4ccc(Cl)cn4)s3)(C1)C2` [Example 241], the half-inhibitory concentration (IC50) in data set [1] (setting [4]) was below 1 µM.
As for `O=C(COc1ccc(Cl)cc1)NC12CC(c3nnn([C@H]4C[C@@H](OC(F)(F)F)C4)n3)(C1)C2` [Example 242], the IC50 in data set [1] (setting [4]) was below 1 µM.
In the case of `O=C(CO[C@H]1C[C@@H](OC(F)(F)F)C1)NC12CC(c3nnn(-c4ccc(Cl)cc4)n3)(C1)C2` [Example 243], the IC50 in data set [1] (setting [4]) was below 1 µM.
Take `O=C(COc1ccc(Cl)c(F)c1)NC12CC(c3nnc([C@H]4C[C@@H](n5nccn5)C4)o3)(C1)C2` [Example 244]: the IC50 in data set [1] (setting [4]) was below 1 µM.
Turning to `O=C(COc1ccc(Cl)c(F)c1)NC12CC(c3nnc([C@H]4C[C@@H](n5ccnn5)C4)o3)(C1)C2` [Example 245], the IC50 in data set [1] (setting [4]) was below 1 µM.
Consider `O=C(CO[C@H]1C[C@@H](OC(F)(F)F)C1)NC12CC(NCCOc3ccc(Cl)c(F)c3)(C1)C2` [Example 246], for which the IC50 in data set [1] (setting [4]) was below 1 µM.
Still for that read-out and setting: for `O=C(CO[C@H]1C[C@@H](OC(F)(F)F)C1)NC12CC(c3cnc(-c4ccc(Cl)c(F)c4)o3)(C1)C2` [Example 247] the value was below 1 µM; for `O=C(NC12CC(n3cnc(-c4ccc(F)c(F)c4)c3)(C1)C2)[C@H]1C[C@H](OCCOC(F)(F)F)C1` [Example 249], below 1 µM.
Turning to `O=C(CO[C@H]1C[C@@H](OC(F)(F)F)C1)NC12CC(c3cc(-c4ccc(Cl)cc4)no3)(C1)C2` [Example 251], the IC50 in data set [1] (setting [4]) is below 1 µM.
`O=C(CO[C@H]1C[C@@H](OC(F)(F)F)C1)NC12CC(c3cc(-c4ccc(Cl)cc4F)no3)(C1)C2` [Example 252]: the IC50 in data set [1] (setting [4]) was below 1 µM.
Turning to `O=C(NC12CC(c3nnc([C@H]4C[C@@H](OC(F)(F)F)C4)o3)(C1)C2)C(O)Cc1ccc(Cl)cc1` (stereo partly drawn) [Example 253], the IC50 in data set [1] (setting [4]) is below 1 µM.
Regarding `N#Cc1cc(C(F)(F)F)ccc1-c1cn(C23CC(NC(=O)CO[C@H]4C[C@@H](OC(F)(F)F)C4)(C2)C3)cn1` [Example 255], the IC50 in data set [1] (setting [4]) is below 1 µM.
On to `O=C(COc1ccc(Cl)c(CO)c1)NC12CC(c3nnc([C@H]4C[C@@H](OC(F)(F)F)C4)o3)(C1)C2` [Example 256], for which the IC50 in data set [1] (setting [4]) is below 1 µM.
On the same count and under the same terms, as for `O=C(CC(O)c1ccc(Cl)cc1)NC12CC(c3nnc([C@H]4C[C@@H](OC(F)(F)F)C4)o3)(C1)C2` (stereo partly drawn) [Example 257], the figure is below 1 µM; as for `O=C(CO[C@H]1C[C@@H](OC(F)(F)F)C1)NC12CC(c3cc(-c4ccc5c(c4)OC(F)(F)O5)no3)(C1)C2` [Example 258], below 1 µM.
On to `CC(C)(C)[Si](C)(C)O[C@H]1C[C@@H](c2nnc(C34CC(NC(=O)COc5ccc(Cl)cc5)(C3)C4)o2)C1` [Example 260], for which, in data set [1] (read-out: Activity (IC50)), the IC50 is below 1 µM.
As for `O=C(COc1ccc(Cl)cc1)NC12CC(c3nnc([C@H]4C[C@@H](O)C4)o3)(C1)C2` [Example 261], the IC50 in data set [1] (setting [4]) fell in the range of 1 to 10 µM.
For `CC(COC(F)(F)F)OCC(=O)NC12CC(n3cnc(-c4ccc(Cl)c(F)c4)c3)(C1)C2` (stereo not drawn) [Example 262], the IC50 in data set [1] (setting [4]) was below 1 µM.
Turning to `O=C(CO[C@H]1C[C@@H](OC(F)(F)F)C1)NC12CC(c3cnn(-c4ccc(Cl)cc4)c3)(C1)C2` [Example 263], in data set [1] (setting [4]), the IC50 is below 1 µM.
Regarding `O=C(CO[C@H]1C[C@@H](OC(F)(F)F)C1)NC12CC(N3CCN(c4ccc(Cl)cc4)C3=O)(C1)C2` [Example 264], the IC50 in data set [1] (setting [4]) is below 1 µM.
On to `O=C(COc1ccc(Cl)cc1)NC12CC(N3C[C@H](C4CC(OC(F)(F)F)C4)OS3(=O)=O)(C1)C2` (stereo partly drawn) [Example 266], for which the IC50 in data set [1] (setting [4]) is below 1 µM.
With `O=C(CO[C@H]1C[C@@H](OC(F)(F)F)C1)NC12CC(n3cnc(C4=NCC(C(F)(F)F)O4)c3)(C1)C2` (stereo partly drawn) [Example 267], the IC50 in data set [1] (setting [4]) was below 1 µM.
Regarding `O=C(NC12CC(c3nnc([C@H]4C[C@@H](OC(F)(F)F)C4)o3)(C1)C2)N1CCc2cc(Cl)ccc2C1` [Example 268], the IC50 in data set [1] (setting [4]) was below 1 µM.
In the case of `O=C(CO[C@H]1C[C@@H](OC(F)(F)F)C1)NC12CC(n3cnc(-c4c(F)cc(Cl)cc4F)c3)(C1)C2` [Example 269], the IC50 was 0.0075 µM in data set [1] (setting [3]) and below 1 µM in data set [1] (setting [4]).
With `O=C(CO[C@H]1C[C@@H](OC(F)(F)F)C1)NC12CC(n3cnc(-c4cc(F)c(Cl)cc4F)c3)(C1)C2` [Example 271], the IC50 in data set [1] (setting [4]) was below 1 µM.
With `O=C(CO[C@H]1C[C@@H](OC(F)(F)F)C1)NC12CC(n3cnc(-c4ccc(C(F)(F)F)cc4CO)c3)(C1)C2` [Example 272], in data set [1] (setting [4]), the IC50 is below 1 µM.
Take `COC(=O)c1cc(C(F)(F)F)ccc1-c1cn(C23CC(NC(=O)CO[C@H]4C[C@@H](OC(F)(F)F)C4)(C2)C3)cn1` [Example 273]: the IC50 in data set [1] (setting [4]) was below 1 µM.
On to `CC(COCC(=O)NC12CC(n3cnc(-c4ccc(Cl)c(F)c4)c3)(C1)C2)OC(F)(F)F` (stereo not drawn) [Example 274], for which the IC50 in data set [1] (setting [4]) is below 1 µM.
For `O=C(CO[C@H]1C[C@@H](OC(F)(F)F)C1)NC12CC(c3cnn(-c4ccccc4)c3)(C1)C2` [Example 275], the IC50 in data set [1] (setting [4]) is below 1 µM.
Consider `O=C(CO[C@H]1C[C@@H](OC(F)(F)F)C1)NC12CC(c3nnc(OCCOC(F)(F)F)o3)(C1)C2` [Example 276], for which the half-inhibitory concentration (IC50) in data set [1] (setting [4]) was below 1 µM.
On to `O=C(NC12CC(c3nnc([C@H]4C[C@@H](OC(F)(F)F)C4)o3)(C1)C2)c1cn(CCOC(F)(F)F)cn1` [Example 277], for which, in data set [1] (setting [4]), the IC50 is below 1 µM.
